Measured values taken from patent US10426773B2, “Systems pharmacology for treating ocular disorders” (Case Western Reserve Univeristy, priority 2011, dated 2019).
“Also recorded” adds a separate entry of the source.

Columns and labels:
[1] = test system: ROS generation in photoreceptors of Abca4−/−Rdh8−/− mice; assay: In vivo detection of ROS (DHE probe) in retinas of light-exposed Abca4−/−Rdh8−/− mice; set-up: species or system mouse; conditions: Example 3; DOX 10 mg/kg, GUB 2.0 mg/kg, SQ 0.5 mg/kg ip 30 min prior to light
Description: The ROS probe, DHE, at a dose of 20 mg/kg body weight was administered to Abca4^−/−Rdh8^−/− mice via intraperitoneal injection 30 min prior to light exposure. Eye cups obtained after removing the cornea, lens and vitreous body from enucleated eye globes 3 h post light illumination were fixed in 4% paraformaldehyde. Cryosections were prepared from fixed eye cups and cut at 12 am thickness for microscopic assessment of ROS signal fluorescence in the retina.
The ROS probe, DHE, at a dose of 20 mg/kg body weight in 25 μl of DMSO, was administered to Abca4^−/−Rdh8^−/− mice via intraperitoneal injection 1 h prior to light exposure. Eye cups obtained after removing the cornea, lens, and vitreous body from enucleated eye globes 3 h post light illumination were fixed in 4% paraformaldehyde. Cryosections were prepared from fixed eye cups and cut at 12-am thickness for microscopic assessment of ROS fluorescence in the retina with ImageJ software (National Institutes of Health).

BALB/c mice = assay: Light-induced retinal degeneration in BALB/c mice, SLO autofluorescence imaging; format: in vivo, mouse; conditions: DOX 10, GUB 2.0, SQ 0.5 mg/kg, 7 days after light
Description: SLO (Heidelberg Engineering) was carried out for in vivo whole fundus imaging of mouse retinas. […] Numbers of autofluorescent spots were counted and subjected to statistical analyses as described below.
These drugs were administered to 4-week-old BALB/c mice by intraperitoneal injection 30 min prior to white light exposure at 10,000 lux for 1 h. Retinal morphology was assessed 7 days after light exposure by OCT imaging and histological examination.

[2] = Quantification of selected drugs in mouse serum and eye by LC-MS; format: in vivo, C57BL/6J WT mice
Description: C57BL/6J WT mice at 6 weeks of age (Jackson Laboratory) were treated with DOX, GUB, or SQ at a single dose of 10, 2, and 0.5 mg per kilogram, respectively. The compound was dissolved in 50% DMSO in PBS (137 mM NaCl, 2.7 mM KCl, 0.67 mM […]). Next, to precipitate excess proteins, 0.3 ml of methanol was added to both the eye homogenate and 0.1 ml of serum. Samples were vortexed for 30 s followed by centrifugation for 15 min at 16,000 g. Clear supernatants were collected and used directly for LC-MS analysis. 2HPO4/KH2PO4, pH 7.4) and administrated by intraperitoneal injection. Thirty minutes later the mice were anesthetized. Blood samples were collected using the technique of cardiac puncture and subsequently centrifuged (5 min, 16,000 g) to collect serum. Prior to harvesting eyes, mice were intracardially perfused with PBS to minimalize blood contamination. Eye balls were immediately homogenized in 0.1 ml of PBS. The homogenate and serum samples were spiked with 100 pmols of internal standard (IS) (parazosin—2-[4-(2-furoyl)piperazin-1-yl]-6,7-dimethoxyquinazolin-4-amine (Sigma Aldrich) or clenbuterol—(RS)-1-(4-Amino-3,5-dichlorophenyl)-2-(tert-butylamino)ethanol (Sigma Aldrich)) for DOX, GUB or SQ quantification, respectively.
Mass spectrometry (MS) based detection and quantification of DOX, GUB, and SQ was performed with a L×Q linear ion trap mass spectrometer (Thermo Scientific) equipped with an electrospray ionization (ESI) interface and coupled to Agilent 1100 HPLC (Agilent Technologies). Separation of drugs and the internal standards was achieved on a reverse phase C18 Phenomenex HPLC column (250×4.60 mm; 5 μm) by a linear gradient of to 100% acetonitrile in water within 15 min at flow rate of 0.5 ml/min. All solvents contained 0.1% formic acid (v/v). The HPLC effluent was sprayed into the MS via an ESI probe operated in the positive ionization mode. Parameters of ionization and detection were tuned with synthetic standards for the drugs to achieve the highest possible sensitivity. Dox and parazosin (internal standard) were detected by selected reaction monitoring (SRM) using m/z 452.2→344.2 and 384.2→247.1 transitions whereas GUB, SQ and their corresponding IS, clenbuterol, was by fragmentation at m/z 231.1→214.0, 206.1→136.0, and 277.1→259.1, respectively. The elution times for DOX, GUB, and SQ were ˜12.8, 12.3, and 10.8 min, respectively. Both internal standards eluted at 12.0 min (FIG. 34). Calibration curves were calculated based on the linear relationship between ratios of SRM ion intensity peak area corresponding to the selected drug and the IS vs. molar ratios of the compounds in the range of 20-500 pmol (FIG. 34H).

Abca4−/−Rdh8−/− mice = assay: Bright light-induced retinal degeneration in Abca4−/−Rdh8−/− mice, ERG retinal function; conditions: pretreatment before light 10,000 lux 30 min; ERG 7 days to 2 weeks after; listed as DOX

**Q.** For COc1cc2nc(N3CCN(C(=O)C4COc5ccccc5O4)CC3)nc(N)c2cc1OC.CS(=O)(=O)O (stereo not drawn) [Doxazosin], which “ROS generation in photoreceptors (DHE signal)” value [1] is on record?
**A.** Its value is “decreased”.

**Q.** What about the “autofluorescent spots by SLO” value (BALB/c mice) of the same molecule?
**A.** The value was “prevented”.

**Q.** What about the “Eye ± SD” value ([2]; 30 min after a single ip dose: DOX 10, GUB 2, SQ 0.5 mg per kilogram, mice perfused with PBS) of the same molecule?
**A.** The value was 11.0 ± 1.7 pmol/eye.

**Q.** And the concentration at 30 min ([2]; C57BL/6J, mouse, serum, intraperitoneal, 30 min after a single ip dose: DOX 10, GUB 2, SQ 0.5 mg per kilogram, read-out: Serum ± SD)?
**A.** The concentration at 30 min was 465 ± 128 nM.

**Q.** What about the “amount in eye compared with level in 0.1 mL of serum” value ([2]; eye volume taken as about 0.1 mL) of the same molecule?
**A.** The value was 5 times lower.

**Q.** What about the “retinal function by ERG (a-wave and b-wave amplitudes)” value (Abca4−/−Rdh8−/− mice) of the same molecule?
**A.** Its value is “substantial preservation of the scotopic ERG response; also recorded: substantial preservation of this response”.
